According to US20260232851A1, “METHODS FOR THE DETECTION AND DIAGNOSIS OF CANCERS ASSOCIATED WITH OVEREXPRESSION OF PSMA RECEPTOR” (CLARITY PHARMACEUTICALS LIMITED, priority 2023, published 2026):

Tests used:
PSMA receptor = molecular target: T1, PSMA receptor (Homo sapiens, UniProt Q04609); test: Same-day (Day 0) versus next-day (Day 1) PET imaging of patients; type: in vivo; details: ^18F-labelled ligand as SOC
T1 construct: localises at sites that overexpress the PSMA receptor and are indicative of a cancer; from tissue; host or cells: Primary prostate cancer and metastatic lesions (lymph node, bone, prostatic bed) in living patients

LNCap tumor = details: mouse, in vivo
From the text: Ex vivo tumor uptake expressed as percentage injected activitiy per gram of tissue (% lAg) (mean±/−SEM, n=3/group) in LNCap tumor bearing NSG mice following injection of either monomeric [^64Cu]Cu-SarPSMA (2 MBq, 0.9 nmol of peptide) or dimeric [^64Cu]Cu-Sar-bisPSMA (2 MBq, 0.2 nmol of peptide).

T1 sequence (Q04609 whole entry): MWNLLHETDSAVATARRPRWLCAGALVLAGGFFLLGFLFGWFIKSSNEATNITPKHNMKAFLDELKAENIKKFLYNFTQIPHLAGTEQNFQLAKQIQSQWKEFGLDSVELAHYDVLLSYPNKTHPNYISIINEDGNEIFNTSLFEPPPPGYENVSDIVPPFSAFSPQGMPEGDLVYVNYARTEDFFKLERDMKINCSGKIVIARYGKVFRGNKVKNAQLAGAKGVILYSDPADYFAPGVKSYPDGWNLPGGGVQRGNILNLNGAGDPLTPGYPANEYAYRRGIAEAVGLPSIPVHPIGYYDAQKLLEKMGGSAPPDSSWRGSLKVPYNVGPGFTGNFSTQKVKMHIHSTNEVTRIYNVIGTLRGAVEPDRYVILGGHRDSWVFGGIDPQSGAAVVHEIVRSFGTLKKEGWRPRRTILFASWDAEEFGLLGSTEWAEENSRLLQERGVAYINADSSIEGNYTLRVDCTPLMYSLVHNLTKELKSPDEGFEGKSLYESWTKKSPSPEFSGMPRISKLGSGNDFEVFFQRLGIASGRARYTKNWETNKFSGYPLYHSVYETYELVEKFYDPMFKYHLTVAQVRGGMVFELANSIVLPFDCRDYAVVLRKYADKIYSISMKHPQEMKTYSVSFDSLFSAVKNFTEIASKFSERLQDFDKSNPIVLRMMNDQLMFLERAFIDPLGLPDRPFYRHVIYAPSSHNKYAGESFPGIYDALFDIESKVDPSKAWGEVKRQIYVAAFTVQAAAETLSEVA

Screening result on SOC PET/CT (FIG. 9A) (PSMA receptor)	SMILES	Uptake and retention at tumors, dimer versus monomer (FIG. 1) (LNCap tumor)
negative/equivocal	O=C(O)CC[C@H](NC(=O)N[C@@H](CCCCNC(=O)c1ccc([18F])nc1)C(=O)O)C(=O)O [^18F-DCFPyL, DCFPyL, reference compound]	–
–	CC12CNCCNCC(NC(=O)CCCC(=O)N[C@H](Cc3ccccc3)C(=O)N[C@H](Cc3ccccc3)C(=O)NCCCCCCCC(=O)NCCCC[C@H](NC(=O)N[C@@H](CCC(=O)O)C(=O)O)C(=O)O)(CNCCNC1)CNCCNC2 [^64Cu-SarPSMA, metal not drawn]	less uptake and retention
